Earlier results in patent publication US12400737B2, “Methods of classifying diffuse large B-cell lymphoma” (CELGENE CORPORATION, priority 2018, dated 2025).

Columns and labels:
[1] = tested on: diffuse large B-cell lymphoma (DLBCL); conditions: background statement
[2] = tested on: acute myeloid leukemia (AML); conditions: administered alone

Molecule	single-agent activity in DLBCL [1]	response in treating AML at relapse [2]
Nc1cccc2c1CN(C1CCC(=O)NC1=O)C2=O (centres unmarked) [lenalidomide, 3-(4-amino-1-oxo-1,3-dihydro-isoindol-2-yl)-piperidine-2,6-dione]	significant single-agent activity	–
CT-011: anti-PD-1 antibody, a humanized antibody	–	failed to show response
